The record followed here is patent US20230348442A1, “GALECTIN-3 INHIBITING 2-HYDROXYCYCLOALKANE-1-CARBAMOYL DERIVATIVES” (Idorsia Pharmaceuticals Ltd, priority 2020, published 2023).

human Gal-3 (hGal-3), sequence (P17931 whole entry): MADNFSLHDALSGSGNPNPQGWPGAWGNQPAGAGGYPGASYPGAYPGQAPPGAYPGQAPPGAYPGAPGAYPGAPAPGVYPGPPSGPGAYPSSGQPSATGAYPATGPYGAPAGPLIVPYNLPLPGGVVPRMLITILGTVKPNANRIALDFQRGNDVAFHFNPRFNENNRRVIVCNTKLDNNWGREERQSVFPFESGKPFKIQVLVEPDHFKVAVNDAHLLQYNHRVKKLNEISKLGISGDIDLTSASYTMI

The target in the assay is human Gal-3 (hGal-3) (Homo sapiens (Human), UniProt P17931). Kind of assay: competitive binding assay: binding of biotinylated hGal-3 to microplate-adsorbed asialofetuin (ASF), spectrophotometric. The following applies: Activity on hGal-3; mean values of several measurements. The method, then:
Evaluation of Compound Inhibitory Activity (IC50)
The inhibitory activity of compounds is determined in competitive binding assays. This spectrophotometric assay measures the binding of biotinylated human Gal-3 (hGal-3) or human Gal-1 (hGal-1), respectively, to a microplate-adsorbed glycoprotein, asialofetuin (ASF) (Proc Natl Acad Sci USA. 2013 Mar. 26; 110(13):5052-7.). Alternatively, and preferably, a human Gal-1 version in which all six cysteines are substituted by serines may be used.
Briefly, compounds are serially diluted in DMSO (working dilutions). ASF-coated 384 well plates are supplemented with 22.8 μL/well of biotinylated hGal-3 or hGal-1 in assay buffer (i.e. 300-1000 ng/mL biotinylated hGal-3 or hGal-1) to which 1.2 μL of compound working dilutions are added and mixed.
Plates are incubated for 3 hours at 4° C., then washed with cold assay buffer (3×50 uL), incubated for 1 hour with 25 μL/well of a streptavidin-peroxidase solution (diluted in assay buffer to 80 ng/mL) at 4° C., followed by further washing steps with assay buffer (3×50 uL). Finally, 25 μL/well of ABTS substrate is added.
The calculated IC50 values may fluctuate depending on the daily assay performance. Fluctuations of this kind are known to those skilled in the art. IC50 values from several measurements are given as mean values.
As usually defined, the IC50 is the concentration that gives 50% inhibition. Higher therefore signals weaker potency in that assay. On to `CO[C@@H]1[C@@H](n2cc(-c3cc(F)c(F)c(F)c3)nn2)[C@@H](O)[C@@H](CO)O[C@H]1C(=O)N(c1cc(C)cc(Cl)c1)[C@@H]1CC[C@H]1O` [Example 2.1.3R, (2R,3R,4S,5R,6R)-N-(3-chloro-5-methylphenyl)-5-hydroxy-N-((1R,2R)-2-hydroxycyclobutyl)-6-(hydroxymethyl)-3-methoxy-4-(4-(3,4,5-trifluorophenyl)-1H-1,2,3-triazol-1-yl)tetrahydro-2H-pyran-2-carboxamide], for which the IC50 turned out to be 258 nM.

In turn, `CO[C@@H]1[C@@H](n2cc(-c3ccc(C#N)c(F)c3)nn2)[C@@H](O)[C@@H](CO)O[C@H]1C(=O)N(c1cc(Br)cc(C#N)c1)[C@H]1CC[C@@H]1O` [Example 2.16.5, (2R,3R,4S,5R,6R)-N-(3-bromo-5-cyanophenyl)-4-(4-(4-cyano-3-fluorophenyl)-1H-1,2,3-triazol-1-yl)-5-hydroxy-N-((1S,2S)-2-hydroxycyclobutyl)-6-(hydroxymethyl)-3-methoxytetrahydro-2H-pyran-2-carboxamide] had an IC50 of 243 nM. This IC50 and that of the compound before are within 1.5-fold of each other. Take `CO[C@@H]1[C@@H](n2cc(-c3cc(F)c(F)c(F)c3)nn2)[C@@H](O)[C@@H](CO)O[C@H]1C(=O)N(c1cccc(Br)c1)[C@@H]1CC[C@H]1O` [Example 2.1.10R, (2R,3R,4S,5R,6R)-N-(3-bromophenyl)-5-hydroxy-N-((1R,2R)-2-hydroxycyclobutyl)-6-(hydroxymethyl)-3-methoxy-4-(4-(3,4,5-trifluorophenyl)-1H-1,2,3-triazol-1-yl)tetrahydro-2H-pyran-2-carboxamide]: the IC50 worked out at 203 nM. The compound `CO[C@@H]1[C@@H](n2cc(-c3ccc(C)c(F)c3)nn2)[C@@H](O)[C@@H](CO)O[C@H]1C(=O)N(c1cc(C)cc(C#N)c1)[C@@H]1CCC[C@H]1O` [Example 1.13.8R, (2R,3R,4S,5R,6R)-N-(3-cyano-5-methylphenyl)-4-(4-(3-fluoro-4-methylphenyl)-1H-1,2,3-triazol-1-yl)-5-hydroxy-N-((1R,2R)-2-hydroxycyclopentyl)-6-(hydroxymethyl)-3-methoxytetrahydro-2H-pyran-2-carboxamide] returned an IC50 of 206 nM. As for `COc1cc(-c2cn([C@H]3[C@@H](O)[C@@H](CO)O[C@@H](C(=O)N(c4cc(Br)cc(Br)c4)[C@@H]4CCC[C@H]4O)[C@@H]3OC)nn2)cc(F)c1F` [Example 1.3.11R, (2R,3R,4S,5R,6R)—N-(3,5-dibromophenyl)-4-(4-(3,4-difluoro-5-methoxyphenyl)-1H-1,2,3-triazol-1-yl)-5-hydroxy-N-((1R,2R)-2-hydroxycyclopentyl)-6-(hydroxymethyl)-3-methoxytetrahydro-2H-pyran-2-carboxamide], the figure is 277 nM. Turning to `CO[C@@H]1[C@@H](n2cc(-c3ccc(F)c(F)c3F)nn2)[C@@H](O)[C@@H](CO)O[C@H]1C(=O)N(c1cc(Br)cc(C#N)c1)[C@H]1CCC[C@@H]1O` [Example 1.20.5, (2R,3R,4S,5R,6R)-N-(3-bromo-5-cyanophenyl)-5-hydroxy-N-((1S,2S)-2-hydroxycyclopentyl)-6-(hydroxymethyl)-3-methoxy-4-(4-(2,3,4-trifluorophenyl)-1H-1,2,3-triazol-1-yl)tetrahydro-2H-pyran-2-carboxamide], the IC50 was 28.7 nM. Against the preceding compound, the IC50 is about 9.7-fold lower.

The compound `CO[C@@H]1[C@@H](n2cc(-c3cc(F)c(F)c(F)c3)nn2)[C@@H](O)[C@@H](CO)O[C@H]1C(=O)N(c1cccc(Cl)c1)[C@H]1CCC[C@@H]1O` [Example 1.1.1, (2R,3R,4S,5R,6R)—N-(3-chlorophenyl)-5-hydroxy-N-((1S,2S)-2-hydroxycyclopentyl)-6-(hydroxymethyl)-3-methoxy-4-(4-(3,4,5-trifluorophenyl)-1H-1,2,3-triazol-1-yl)tetrahydro-2H-pyran-2-carboxamide] showed an IC50 of 36.5 nM. As for `CO[C@@H]1[C@@H](n2cc(-c3cccc(F)c3)nn2)[C@@H](O)[C@@H](CO)O[C@H]1C(=O)N(c1cc(Br)cc(C#N)c1)[C@H]1CCC[C@@H]1O` [Example 1.15.5, (2R,3R,4S,5R,6R)-N-(3-bromo-5-cyanophenyl)-4-(4-(3-fluorophenyl)-1H-1,2,3-triazol-1-yl)-5-hydroxy-N-((1S,2S)-2-hydroxycyclopentyl)-6-(hydroxymethyl)-3-methoxytetrahydro-2H-pyran-2-carboxamide], the figure is 66 nM. The compound `CO[C@@H]1[C@@H](n2cc(-c3cc(F)c(F)c(F)c3)nn2)[C@@H](O)[C@@H](CO)O[C@H]1C(=O)N(c1cc(Cl)cc(C#N)c1)[C@H]1CC[C@@H]1O` [Example 2.1.4, (2R,3R,4S,5R,6R)-N-(3-chloro-5-cyanophenyl)-5-hydroxy-N-((1S,2S)-2-hydroxycyclobutyl)-6-(hydroxymethyl)-3-methoxy-4-(4-(3,4,5-trifluorophenyl)-1H-1,2,3-triazol-1-yl)tetrahydro-2H-pyran-2-carboxamide] displayed an IC50 of 78.8 nM. The compound `CO[C@@H]1[C@@H](n2cc(-c3ccc(C#N)c(F)c3)nn2)[C@@H](O)[C@@H](CO)O[C@H]1C(=O)N(c1cc(Cl)cc(C#N)c1)[C@@H]1CCC[C@H]1O` [Example 1.16.4R, (2R,3R,4S,5R,6R)-N-(3-chloro-5-cyanophenyl)-4-(4-(4-cyano-3-fluorophenyl)-1H-1,2,3-triazol-1-yl)-5-hydroxy-N-((1R,2R)-2-hydroxycyclopentyl)-6-(hydroxymethyl)-3-methoxytetrahydro-2H-pyran-2-carboxamide] gave an IC50 of 978 nM. As for `CO[C@@H]1[C@@H](n2cc(-c3cc(F)c(F)c(F)c3)nn2)[C@@H](O)[C@@H](CO)O[C@H]1C(=O)N(c1cc(C)cc(Cl)c1)[C@H]1CCC[C@@H]1O` [Example 1.1.3, (2R,3R,4S,5R,6R)-N-(3-chloro-5-methylphenyl)-5-hydroxy-N-((1S,2S)-2-hydroxycyclopentyl)-6-(hydroxymethyl)-3-methoxy-4-(4-(3,4,5-trifluorophenyl)-1H-1,2,3-triazol-1-yl)tetrahydro-2H-pyran-2-carboxamide], the figure is 34.8 nM. As for `CO[C@@H]1[C@@H](n2cc(-c3ccc(C#N)c(F)c3)nn2)[C@@H](O)[C@@H](CO)O[C@H]1C(=O)N(c1cc(Br)cc(C#N)c1)[C@@H]1CCC[C@H]1O` [Example 1.16.5R, (2R,3R,4S,5R,6R)-N-(3-bromo-5-cyanophenyl)-4-(4-(4-cyano-3-fluorophenyl)-1H-1,2,3-triazol-1-yl)-5-hydroxy-N-((1R,2R)-2-hydroxycyclopentyl)-6-(hydroxymethyl)-3-methoxytetrahydro-2H-pyran-2-carboxamide], the figure is 729 nM.

Take `CO[C@@H]1[C@@H](n2cc(-c3cc(F)c(F)c(F)c3)nn2)[C@@H](O)[C@@H](CO)O[C@H]1C(=O)N(c1cc(Br)cc(Br)c1)[C@@H]1CC[C@H]1O` [Example 2.1.11R, (2R,3R,4S,5R,6R)-N-(3,5-dibromophenyl)-5-hydroxy-N-((1R,2R)-2-hydroxycyclobutyl)-6-(hydroxymethyl)-3-methoxy-4-(4-(3,4,5-trifluorophenyl)-1H-1,2,3-triazol-1-yl)tetrahydro-2H-pyran-2-carboxamide]: the IC50 worked out at 334 nM. This IC50 lies about 2.2-fold lower than the previous one. Turning to `CO[C@@H]1[C@@H](n2cc(-c3ccc(Br)c(F)c3F)nn2)[C@@H](O)[C@@H](CO)O[C@H]1C(=O)N(c1cc(Cl)cc(C#N)c1)[C@@H]1CC[C@H]1O` [Example 2.12.4R, (2R,3R,4S,5R,6R)-4-(4-(4-bromo-2,3-difluorophenyl)-1H-1,2,3-triazol-1-yl)-N-(3-chloro-5-cyanophenyl)-5-hydroxy-N-((1R,2R)-2-hydroxycyclobutyl)-6-(hydroxymethyl)-3-methoxytetrahydro-2H-pyran-2-carboxamide], the IC50 was 135 nM. As for `CO[C@@H]1[C@@H](n2cc(-c3ccc(C#N)c(F)c3)nn2)[C@@H](O)[C@@H](CO)O[C@H]1C(=O)N(c1cc(Br)cc(C#N)c1)[C@H]1CCC[C@@H]1O` [Example 1.16.5, (2R,3R,4S,5R,6R)-N-(3-bromo-5-cyanophenyl)-4-(4-(4-cyano-3-fluorophenyl)-1H-1,2,3-triazol-1-yl)-5-hydroxy-N-((1S,2S)-2-hydroxycyclopentyl)-6-(hydroxymethyl)-3-methoxytetrahydro-2H-pyran-2-carboxamide], the IC50 amounted to 62 nM.

Compound `CO[C@@H]1[C@@H](n2cc(-c3cc(F)cc(F)c3)nn2)[C@@H](O)[C@@H](CO)O[C@H]1C(=O)N(c1cc(Br)cc(C#N)c1)[C@@H]1CCC[C@H]1O` [Example 1.2.5R, (2R,3R,4S,5R,6R)-N-(3-bromo-5-cyanophenyl)-4-(4-(3,5-difluorophenyl)-1H-1,2,3-triazol-1-yl)-5-hydroxy-N-((1R,2R)-2-hydroxycyclopentyl)-6-(hydroxymethyl)-3-methoxytetrahydro-2H-pyran-2-carboxamide] showed an IC50 of 450 nM. As for `CO[C@@H]1[C@@H](n2cc(-c3ccc(Cl)c(Cl)c3)nn2)[C@@H](O)[C@@H](CO)O[C@H]1C(=O)N(c1cc(Br)cc(C#N)c1)[C@H]1CCC[C@@H]1O` [Example 1.8.5, (2R,3R,4S,5R,6R)-N-(3-bromo-5-cyanophenyl)-4-(4-(3,4-dichlorophenyl)-1H-1,2,3-triazol-1-yl)-5-hydroxy-N-((1S,2S)-2-hydroxycyclopentyl)-6-(hydroxymethyl)-3-methoxytetrahydro-2H-pyran-2-carboxamide], the IC50 stood at 40.8 nM. This IC50 lies about 11-fold lower than the previous one.
